Key:
INS-1 cells = experiment: Insulin secretion assay in INS-1 cells (glucose at 4.2 mM); format: cell-based, rat; settings: 1 h incubation; for activity at 10 µM: Rattus norvegicus, INS1, glucose 4.2 mM, compound 10 μm, read-out: Insulin secretion, % of ctrl at 10 μm of cpd; for Insulin secretion, % of ctrl at 50 μm of cpd: glucose 4.2 mM, compound 50 μm
Procedure: INS-1 cells were cultured in complete medium, RPMI1640 containing 1 mM sodium pyruvate, 50 μM 2-mercaptoethanol, 2 mM glutamine, 10 mM HEPES, 100 IU/mL penicillin, and 100 μg/mL streptomycin (CM), supplemented with 10 mM glucose, and 10% (vol/vol) heat-inactivated fetal […] (FCS), as described by Asfari et al. (Endocrinology 130: 167-178, 1992).
INS-1 cells were plated and cultured in 48-well plates. After 2 days of culture, the medium was removed and cells were cultured for 24 h with a medium change to 5 mM glucose, 1% FCS. The cells were then washed with Krebs-Ringer Bicarbonate HEPES buffer (KRBH; 135 mM NaCl; 3.6 mM KCl; 5 mM NaHCO3; 0.5 mM NaH2PO4; 0.5 mM MgCl2; 1.5 mM CaCl2 and 10 mM HEPES; pH 7.4) 0.1% BSA containing 2.8 mM glucose and preincubated for 30 min at 37° C. in the same buffer. The cells were then washed twice and incubated for 1 h in KRBH 0.1% BSA containing 4.2 mM glucose and different concentrations of the tested molecule. Insulin concentration in the collected supernatants was measured with ELISA using rat insulin antibody (Insulin Rat Elit PLUS, cat, ref 10-1145-01).
Insulin secretion results are expressed in % of control (glucose 4.2 mM).

[1] = system: diabetic N0STZ rat islets; experiment: Insulin secretion in diabetic N0STZ rat islets; format: cell-based; settings: 90 min, Means±SEM
Procedure: 14±3 weeks non-fasted N0STZ (PORTHA et al., 1974) male rats (Charles Rivers-Domaine des Oncins, I'Arbresle, France) were anesthetized with sodium pentobarbital (Nembutal®: 45 mg/kg in 5 ml/kg administered intra peritoneally) and body temperature was maintained with a heat lamp.
Rat pancreatic islets of Langerhans were isolated from the pancreas of 8 rats by collagenase P (Boehringer, Meylan, France) digestion. Islets were purified by sedimentation in Hanks balanced salt solution [NaCl (137 mM); KCl (5.36 mM); MgSO4, 7 H2O (0.81 mM); Na2HPO4, 12 H2O (0.34 mM); KH2PO4 (0.44 mM); CaCl2, 2 H2O (1.26 mM); NaHCO3 (4.17 mM)] followed by Ficoll gradient separation. Islets were then hand-picked under stereoscopic microscope and batches of 3 islets were incubated for 90 minutes at 37° C. with continuous shaking under a humidified condition ([…], 5% CO2) in 1 ml of Krebs/Hepes pH 7 solution [NaCl (115 mM), NaHCO3 (24 mM), KCl (5 mM), MgCl2 (1 mM), CaCl2, 2 H2O (1 mM), 0.2% of Bovine serum albumin (Fraction V, fatty acid free, Boehringer, Mannheim), 10 mM Hepes] containing the required glucose or compound concentration. Compounds were dissolved in DMSO at 2.10-2M stock solutions. They were then diluted at the required concentration in Krebs/Hepes buffer containing the required glucose concentration.
At the end of incubation, media was collected and insulin levels were measured using ELISA (EUROBIO, Courtaboeuf, France).
Islets were hand-picked and incubated in the presence of increasing concentrations of compounds in the presence of glucose at 2.8 or 8 mM. At the end of incubation, media was collected and insulin levels were measured using ELISA method. Results are expressed as % of glucose control (2.8 or 8 mM) and represent Means±SEM.

[2] = glucose 2.8 mM, compound 10−4 M

| Structure (SMILES) | activity at 10 µM (INS-1 cells) [%] | Insulin secretion, % of ctrl at 50 μm of cpd (INS-1 cells) | other results |
| --- | --- | --- | --- |
| Cc1ccnc2c1nc(-c1ccc(Cl)cc1)c(=O)n2C1CC1 [Example 3-13, 2-(4-chlorophenyl)-4-cyclopropyl-8-methylpyrido[2,3-b]pyrazin-3(4H)-one] |  |  | melting point: 159 to 163 °C |
| CCn1c(=O)c(-c2ccc(Cl)cc2)nc2cccnc21 [Example 3-2, 2-(4-chlorophenyl)-4-ethylpyrido[2,3-b]pyrazin-3(4H)-one] | 240 | 263 % of ctrl |  |
| O=c1c(-c2ccc(Cl)cc2)nc2cccnc2n1CC1CC1 [Example 3, 2-(4-chlorophenyl)-4-cyclopropylmethylpyrido[2,3-b]pyrazin-3(4H)-one] | 241 | 398 % of ctrl | Insulin secretion, % of glucose control [1, 2]: 85 ± 8 % of glucose control; Insulin secretion, % of glucose control ([1]; glucose 8 mM, compound 10−4 M): 168 ± 7 % of glucose control; Insulin secretion, % of glucose control ([1]; glucose 8 mM, compound 10−5 M): 145 ± 9 % of glucose control; Insulin secretion, % of glucose control ([1]; glucose 8 mM, compound 10−6 M): 110 ± 7 % of glucose control; Insulin secretion, % of glucose control ([1]; glucose 8 mM, compound 10−7 M): 100 ± 7 % of glucose control |
| O=c1c(-c2ccc(Cl)cc2)nc2cccnc2n1CC(F)F [Example 3-8, 2-(4-chlorophenyl)-4-(2,2-difluoroethyl)pyrido[2,3-b]pyrazin-3(4H)-one] | 273 |  |  |
| COCCn1c(=O)c(-c2ccc(F)cc2)nc2cccnc21 [Example 3-16, 2-(4-fluorophenyl)-4-(2-methoxyethyl)pyrido[2,3-b]pyrazin-3(4H)-one] | 254 |  | melting point: 124 to 127 °C |
| Cc1cc(F)ccc1-c1nc2cccnc2n(C2CC2)c1=O [Example 6-2, 4-cyclopropyl-2-(4-fluoro-2-methylphenyl)pyrido[2,3-b]pyrazin-3(4H)-one] |  |  | melting point: 165 to 167 °C |
| CCn1c(=O)c(-c2ccccc2)nc2cccnc21 [Example 3-4, 4-ethyl-2-phenylpyrido[2,3-b]pyrazin-3(4H)-one] | 226 | 302 % of ctrl |  |
| O=c1c(-c2ccc(Cl)cc2)nc2cccnc2n1C1CC1 [Example 3-5, 2-(4-chlorophenyl)-4-cyclopropylpyrido[2,3-b]pyrazin-3(4H)-one] | 418 | 610 % of ctrl |  |
| CCn1c(=O)c(-c2ccc(F)cc2)nc2cccnc21 [Example 3-3, 2-(4-fluorophenyl)-4-ethylpyrido[2,3-b]pyrazin-3(4H)-one] | 235 | 251 % of ctrl |  |
| O=c1c(-c2ccc(F)cc2)nc2cccnc2n1C1CC1 [Example 3-6, 4-cyclopropyl-2-(4-fluorophenyl)pyrido[2,3-b]pyrazin-3(4H)-one] | 231 | 255 % of ctrl |  |
| O=c1c(-c2ccc(F)cc2)nc2cccnc2n1CC1CC1 [Example 3-7, 4-cyclopropylmethyl-2-(4-fluorophenyl)pyrido[2,3-b]pyrazin-3(4H)-one] | 208 | 221 % of ctrl | Insulin secretion, % of glucose control [1, 2]: 84 ± 10 % of glucose control; Insulin secretion, % of glucose control ([1]; glucose 8 mM, compound 10−4 M): 228 ± 12 % of glucose control; Insulin secretion, % of glucose control ([1]; glucose 8 mM, compound 10−5 M): 210 ± 9 % of glucose control; Insulin secretion, % of glucose control ([1]; glucose 8 mM, compound 10−6 M): 149 ± 9 % of glucose control; Insulin secretion, % of glucose control ([1]; glucose 8 mM, compound 10−7 M): 124 ± 7 % of glucose control |
| CC(C)n1c(=O)c(-c2ccc(Cl)cc2)nc2cccnc21 [Example 3-18, 2-(4-chlorophenyl)-4-isopropyl-pyrido[2,3-b]pyrazin-3(4H)-one] | 338 |  |  |

Source: patent publication US8609689B2, “Pyridopyrazinones derivatives insulin secretion stimulators, methods for obtaining them and use thereof for the treatment of diabetes” (Merck Patent GmbH, priority 2008, dated 2013)
